Each cell line was assayed with CC(C)C[C@@H](C(=O)N[C@H](C(=O)OC1CCCC1)c1ccccc1)[C@H](O)C(=O)NO [Tosedostat] + CS(=O)(=O)CCNCc1ccc(-c2ccc3ncnc(Nc4ccc(OCc5cccc(F)c5)c(Cl)c4)c3c2)o1 [Lapatinib] (partner 2 µM) (assay: relative viability (nuclei count vs DMSO), 5 days (fraction); higher = more cells survive). Conditions: first compound 2 µM.
Summary of the method: (§1)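 Relative viability divides the nuclei count in treated wells by that in vehicle wells. Lung cancer cell lines were seeded in 1536-well plates, dosed by pin tool the next day, and fixed and stained after 5 days in one step with final 0.05% Triton X-100, 1% formaldehyde and 1 ug/ml Hoechst. Dosing was a single drug or a fixed anchor-drug dose plus five library-drug doses (not always all listed) in √10 steps, and values are medians of duplicate plates imaged at 4×.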

| Cell Line | relative viability |
| --- | --- |
| CAL-12T | 0.678 |
| NCI-H1734 | 0.763 |
| EPLC-272H | 0.621 |
| NCI-H3122 | 1.04 |
| NCI-H2009 | 0.663 |
| NCI-H1563 | 1.05 |
| NCI-H520 | 1.03 |
| NCI-H1651 | 0.697 |
| NCI-H1993 | 0.734 |

Each cell line was assayed with CC(C)C[C@@H](C(=O)N[C@H](C(=O)OC1CCCC1)c1ccccc1)[C@H](O)C(=O)NO [Tosedostat] + C[C@@H](Oc1cc(-c2cnn(C3CCNCC3)c2)cnc1N)c1c(Cl)ccc(F)c1Cl [Crizotinib] (partner 1 µM) in the same assay as above. Conditions: first compound 0.02 µM.
Summary of the method: as §1

| Cell Line | relative viability |
| --- | --- |
| COR-L23 | 0.86 |
| COR-L 105 | 0.865 |
| LU99A | 0.546 |
| NCI-H460 | 0.956 |
| HOP-62 | 1.01 |
| HCC-44 | 0.861 |
| LXF-289 | 0.838 |
| BEN | 0.894 |
| HARA | 1.12 |
| HCC-78 | 0.298 |
| NCI-H647 | 1.25 |
| LCLC-97TM1 | 0.338 |
| NCI-H2126 | 0.974 |
| A-427 | 0.972 |
| NCI-H650 | 0.786 |
| RERF-LC-KJ | 0.859 |
| NCI-H1915 | 0.922 |

| Cell Line | relative viability |
| --- | --- |
| NCI-H661 | 0.929 |
| NCI-H1975 | 0.939 |
| 201T | 1.04 |
| NCI-H2023 | 0.689 |
| HCC-827 | 0.954 |
| NCI-H322M | 0.877 |
| NCI-H1437 | 0.941 |
| PC-14 | 0.843 |
| CAL-12T | 0.702 |
| NCI-H1734 | 0.727 |
| EPLC-272H | 0.915 |
| NCI-H3122 | 0.292 |
| NCI-H2009 | 1.07 |
| NCI-H1563 | 0.877 |
| NCI-H520 | 0.692 |
| NCI-H1651 | 0.918 |
| NCI-H1993 | 0.994 |

Same assay, conditions: first compound 0.06325 µM

| Cell Line | relative viability |
| --- | --- |
| COR-L23 | 0.554 |
| COR-L 105 | 0.751 |
| LU99A | 0.636 |
| NCI-H460 | 0.787 |
| HOP-62 | 0.994 |
| HCC-44 | 0.755 |
| LXF-289 | 0.703 |
| BEN | 0.875 |
| HARA | 0.912 |
| HCC-78 | 0.337 |
| NCI-H647 | 1.04 |
| NCI-H2126 | 1.02 |
| A-427 | 0.847 |
| NCI-H650 | 0.662 |
| RERF-LC-KJ | 0.887 |
| NCI-H1915 | 0.894 |
| NCI-H661 | 0.93 |

| Cell Line | relative viability |
| --- | --- |
| NCI-H1975 | 1.01 |
| 201T | 1.05 |
| NCI-H2023 | 0.609 |
| HCC-827 | 0.933 |
| NCI-H322M | 0.957 |
| NCI-H1437 | 0.988 |
| PC-14 | 0.805 |
| CAL-12T | 0.594 |
| NCI-H1734 | 0.695 |
| EPLC-272H | 0.877 |
| NCI-H3122 | 0.274 |
| NCI-H2009 | 1.07 |
| NCI-H1563 | 0.998 |
| NCI-H520 | 0.754 |
| NCI-H1651 | 0.851 |
| NCI-H1993 | 0.761 |

Same assay, conditions: first compound 0.2 µM

| Cell Line | relative viability |
| --- | --- |
| COR-L23 | 0.642 |
| COR-L 105 | 0.827 |
| LU99A | 0.648 |
| NCI-H460 | 0.905 |
| HOP-62 | 0.677 |
| HCC-44 | 0.759 |
| LXF-289 | 0.821 |
| BEN | 0.818 |
| HARA | 0.991 |
| HCC-78 | 0.324 |
| NCI-H647 | 0.831 |
| NCI-H2126 | 1.02 |
| A-427 | 0.87 |
| NCI-H650 | 0.596 |
| RERF-LC-KJ | 0.764 |
| NCI-H1915 | 0.901 |
| NCI-H661 | 1.12 |

| Cell Line | relative viability |
| --- | --- |
| NCI-H1975 | 1.1 |
| 201T | 1.08 |
| NCI-H2023 | 0.747 |
| HCC-827 | 0.977 |
| NCI-H322M | 0.841 |
| NCI-H1437 | 1.03 |
| PC-14 | 0.893 |
| CAL-12T | 0.727 |
| NCI-H1734 | 0.688 |
| EPLC-272H | 0.635 |
| NCI-H3122 | 0.277 |
| NCI-H2009 | 1 |
| NCI-H1563 | 0.893 |
| NCI-H520 | 0.787 |
| NCI-H1651 | 0.878 |
| NCI-H1993 | 0.779 |

Same assay, conditions: first compound 0.6325 µM

| Cell Line | relative viability |
| --- | --- |
| COR-L23 | 0.604 |
| COR-L 105 | 0.493 |
| LU99A | 0.484 |
| NCI-H460 | 0.708 |
| HOP-62 | 0.81 |
| HCC-44 | 0.741 |
| LXF-289 | 0.76 |
| BEN | 1.02 |
| HARA | 0.997 |
| HCC-78 | 0.371 |
| NCI-H647 | 0.957 |
| LCLC-97TM1 | 0.288 |
| NCI-H2126 | 0.954 |
| A-427 | 0.916 |
| NCI-H650 | 0.551 |
| RERF-LC-KJ | 0.686 |
| NCI-H1915 | 0.905 |

| Cell Line | relative viability |
| --- | --- |
| NCI-H661 | 1.04 |
| NCI-H1975 | 0.773 |
| 201T | 1.11 |
| NCI-H2023 | 0.696 |
| HCC-827 | 0.888 |
| NCI-H322M | 0.868 |
| NCI-H1437 | 0.914 |
| PC-14 | 0.842 |
| CAL-12T | 0.533 |
| NCI-H1734 | 0.574 |
| EPLC-272H | 0.613 |
| NCI-H3122 | 0.254 |
| NCI-H2009 | 1.02 |
| NCI-H1563 | 1.07 |
| NCI-H520 | 0.833 |
| NCI-H1651 | 0.897 |
| NCI-H1993 | 0.688 |

Same assay, conditions: first compound 2 µM

| Cell Line | relative viability |
| --- | --- |
| COR-L23 | 0.524 |
| COR-L 105 | 0.548 |
| LU99A | 0.478 |
| NCI-H460 | 0.932 |
| HOP-62 | 0.69 |
| HCC-44 | 0.492 |
| LXF-289 | 0.799 |
| BEN | 0.956 |
| HARA | 1.14 |
| HCC-78 | 0.391 |
| NCI-H647 | 0.869 |
| LCLC-97TM1 | 0.221 |
| NCI-H2126 | 0.935 |
| A-427 | 0.895 |
| NCI-H650 | 0.375 |
| RERF-LC-KJ | 0.78 |

From the supplement of paper PMC10307832
